Holding throughout (assay): ≥ marks a high value that may be exact or a test limit, other limits are often not marked, values filed in µg/mL are converted to µM
Assay [1] has as its system Staphylococcus aureus ATCC 27660.
Assay [2] relates to Escherichia coli D31.
In assay [3] the test system is Acinetobacter baumannii ATCC 19606.
In assay [4] the test system is Pseudomonas aeruginosa ATCC 10145.
Assay [5] relates to Pseudomonas aeruginosa ATCC 27853.
Assay [6] deals with Escherichia coli ATCC 25922.
The subject of assay [7] is Acinetobacter baumannii ATCC BAA-747.
Assay [8] deals with Enterococcus faecium ATCC 700221.
Assay [9] concerns Klebsiella pneumoniae ATCC 700603.
The test system of assay [10] is Salmonella enterica ATCC 6539.
For assay [11], the system named is Staphylococcus aureus ATCC 43300.
Assay [12] has as its system Staphylococcus aureus SH1000.
For assay [13], the system named is Candida albicans ATCC 90028.
Assay [14] deals with Cryptococcus neoformans ATCC 208821.
The subject of assay [15] is Klebsiella pneumoniae ATCC BAA-1705.
The subject of assay [16] is Escherichia coli W3110.
Assay [17] deals with Staphylococcus aureus ATCC 33591.
For assay [18], the system named is Acinetobacter baumannii 7226/16.
Assay [19] deals with Staphylococcus aureus 1399/17.
The subject of assay [20] is Escherichia coli ML-35p.
Assay [21] concerns Pseudomonas aeruginosa 522/17.
In assay [22] the test system is Escherichia coli ESBL 521/17.
Assay [23] concerns Klebsiella pneumoniae ESBL 344/17.
For assay [24], the system named is Staphylococcus aureus SG511.
Assay [25] has as its system Klebsiella aerogenes LMG 02094.
Assay [26] concerns Escherichia coli LMG 15862.
For assay [27], the system named is Pseudomonas aeruginosa LMG 6395.
Assay [28] deals with Acinetobacter baumannii LMG 01041.
In assay [29] the test system is Klebsiella pneumoniae LMG 20218.
Assay [30] has as its system Staphylococcus aureus ATCC 25923.
Assay [31] has as its system Vibrio cholerae O1 Inaba.
Assay [32] relates to Listeria monocytogenes 10403s.
Assay [33] has as its system Enterococcus faecalis ATCC 29212.
For assay [34], the system named is Escherichia coli O157:H7.
The test system of assay [35] is Salmonella enterica subsp. enterica serovar Typhimurium ATCC 13311.
Assay [36] has as its system Bacillus cereus ATCC 11778.
Assay [37] relates to Shigella sonnei ATCC 11060.
Assay [38] has as its system Staphylococcus epidermidis ATCC 12228.
In assay [39] the test system is Acinetobacter baumannii.
Assay [40] deals with Staphylococcus aureus NCTC 12981.
The test system of assay [41] is Escherichia coli NCTC 10418.

≈ marks a conversion by molar mass, not a printed value. Some results are limits rather than exact numbers.

Experimental findings from DBAASP are described below.

What is called MIC is the smallest concentration in the dilution series that meets the test's criterion for growth inhibition. With `C[C@H](N)C(=O)N[C@@H](C)C(=O)N[C@@H](Cc1c[nH]c2ccccc12)C(=O)N[C@@H](CCCCN)C(=O)N[C@@H](CCCCN)C(=O)N[C@@H](C)C(=O)N[C@@H](C)C(=O)N[C@@H](CCCCN)C(=O)N[C@@H](CCCCN)C(=O)N[C@@H](C)C(=O)N[C@@H](C)C(=O)N[C@@H](CCCCN)C(=O)N[C@@H](CO)C(=O)N[C@@H](C)C(=O)N[C@@H](CCCCN)C(=O)N[C@@H](CCCCN)C(=O)N[C@@H](C)C(=O)NCC(N)=O` [AAWKKAAKKAAKSAKKAG], the MIC is 15 µM (≈ 27.2 µg/mL) in [1], 15 µM (≈ 27.2 µg/mL) in [2], above 15 µM in assay [3] and 15 µM (≈ 27.2 µg/mL) in [4].
Regarding `NCC(=O)NCC(=O)N[C@@H](Cc1cnc[nH]1)C(=O)NCC(=O)N[C@@H](Cc1c[nH]c2ccccc12)C(=O)N[C@@H](CCCN=C(N)N)C(=O)N[C@@H](Cc1c[nH]c2ccccc12)C(=O)N[C@@H](Cc1ccc(O)cc1)C(=O)N[C@@H](CS)C(=O)N[C@@H](CCCN=C(N)N)C(N)=O` [GGHGWRWYCR], the MIC turned out to be 25 µM (≈ 31.9 µg/mL) in [5]; 3 µM (≈ 3.83 µg/mL) in [6]; 25 µM (≈ 31.9 µg/mL) in assay [7]; 25 µM (≈ 31.9 µg/mL) in assay [8]; 25 µM (≈ 31.9 µg/mL) in assay [9]; 6 µM (≈ 7.66 µg/mL) in assay [10]. The compound further showed an MIC in assay [11] of 3 µM (≈ 3.83 µg/mL).
As to `CC[C@H](C)[C@H](NC(=O)[C@H](CC(=O)O)NC(=O)[C@H](Cc1ccccc1)NC(=O)[C@H](CC(C)C)NC(=O)CN)C(=O)N[C@H](C(=O)N[C@@H](CCCCN)C(=O)N[C@@H](CCCCN)C(=O)N[C@H](C(=O)N[C@H](C(=O)NCC(=O)N[C@@H](C)C(=O)N[C@@H](CC(C)C)C(=O)NCC(N)=O)C(C)C)C(C)C)C(C)C` [GLFDIVKKVVGALG], the MIC in [5] is above 23 µM; in assay [6], above 23 µM; in assay [12], at least 50 µM; in assay [13] it was 23 µM (≈ 32.5 µg/mL); in assay [3] it was above 23 µM; in assay [14], 23 µM (≈ 32.5 µg/mL). Moreover, the minimum inhibitory concentration (MIC) in assay [9] and in assay [11] was above 23 µM in each case.
As to `CC[C@H](C)[C@H](N)C(=O)N[C@@H](CC(C)C)C(=O)N[C@@H](Cc1c[nH]c2ccccc12)C(=O)N[C@@H](C)C(=O)N[C@@H](CCCCN)C(=O)N[C@@H](Cc1c[nH]c2ccccc12)C(=O)NCC(=O)N[C@@H](CC(C)C)C(=O)N[C@@H](CCCCN)C(=O)N[C@@H](CC(C)C)C(=O)N[C@@H](CC(C)C)C(=O)N[C@@H](CCCN=C(N)N)C(=O)N[C@@H](Cc1ccc(O)cc1)C(=O)N[C@@H](CCCN=C(N)N)C(=O)N[C@@H](CCCN=C(N)N)C(=O)N[C@H](C(=O)N[C@@H](Cc1ccc(O)cc1)C(=O)O)[C@@H](C)CC` [ILWAKWGLKLLRYRRIY], the minimum inhibitory concentration (MIC) was at least 64 µM in [15] and 4 µM (≈ 9 µg/mL) in assay [16].
In the case of `CC[C@H](C)[C@H](NC(=O)[C@H](CCCN=C(N)N)NC(=O)[C@@H](NC(=O)[C@@H]1CCCN1C(=O)[C@H](Cc1c[nH]c2ccccc12)NC(=O)[C@@H]1CCCN1C(=O)[C@H](CCCN=C(N)N)NC(=O)[C@H](CCCN=C(N)N)NC(=O)[C@H](Cc1ccccc1)NC(=O)[C@@H]1CCCN1C(=O)[C@H](CC(C)C)NC(=O)[C@H](CCCN=C(N)N)NC(=O)[C@H](Cc1ccccc1)NC(=O)[C@@H](N)CCCN=C(N)N)[C@@H](C)CC)C(=O)N[C@@H](Cc1cnc[nH]1)C(=O)N1CCC[C@H]1C(=O)N1CCC[C@H]1C(=O)N1CCC[C@H]1C(=O)N[C@@H](Cc1ccccc1)C(=O)N[C@@H](Cc1ccc(O)cc1)C(=O)N1CCC[C@H]1C(=O)N[C@@H](Cc1c[nH]c2ccccc12)C(=O)N1CCC[C@H]1C(=O)N[C@@H](Cc1ccccc1)C(=O)N[C@@H](CCCN=C(N)N)C(=O)N[C@@H](CCCN=C(N)N)C(=O)N[C@@H](Cc1ccccc1)C(=O)N[C@@H](CC(C)C)C(=O)O` [RFRLPFRRPWPIRIHPPPFYPWPFRRFL], the MIC in assay [17] worked out at 8 µM (≈ 30 µg/mL); in [18] it was 11.3 µM (≈ 42.4 µg/mL); in assay [19], 8 µM (≈ 30 µg/mL); in [20], 4 µM (≈ 15 µg/mL); in assay [21], 16 µM (≈ 60 µg/mL); in assay [22], 4 µM (≈ 15 µg/mL). Further, the values for the MIC in assay [23] and in [24] were 8 µM (≈ 30 µg/mL) and 0.5 µM (≈ 1.87 µg/mL), respectively.
`CC[C@H](C)[C@H](NC(=O)[C@H](CCCN=C(N)N)NC(=O)[C@H](CCCCN)NC(=O)[C@H](CCCN=C(N)N)NC(=O)[C@@H](NC(=O)[C@@H](N)CCCN=C(N)N)[C@@H](C)CC)C(=O)N[C@@H](CCCCN)C(=O)N[C@@H](CCCCN)C(=O)N[C@@H](Cc1c[nH]c2ccccc12)C(=O)N[C@@H](CC(C)C)C(=O)N[C@@H](CCCN=C(N)N)C(N)=O` [RIRKRIKKWLR]: the MIC in assay [25] was at least 256 µM; in assay [26], 16 µM (≈ 24.8 µg/mL); in assay [27] it was 16 µM (≈ 24.8 µg/mL); in assay [28], at least 256 µM; in assay [29], at least 256 µM.
In the case of `CC[C@H](C)[C@H](NC(=O)[C@H](CCCN=C(N)N)NC(=O)[C@H](CCCCN)NC(=O)[C@H](CCCCN)NC(=O)[C@@H](NC(=O)[C@H](CCCCN)NC(=O)[C@H](CCC(=O)O)NC(=O)[C@H](CCCCN)NC(=O)[C@@H](N)CCCN=C(N)N)[C@@H](C)CC)C(=O)NCC(=O)N[C@@H](CCCCN)C(=O)N[C@H](C(=O)N[C@@H](CC(=O)O)C(=O)N[C@@H](CCCN=C(N)N)C(=O)N[C@@H](CC(C)C)C(N)=O)[C@@H](C)CC` [RKEKIKKRIGKIDRL], the MIC in [5] is above 133 µM; in assay [6] it was above 133 µM; in assay [30], above 133 µM; in assay [31], at least 133 µM; in [32] it was at least 133 µM; in [33], above 133 µM. In addition, the MIC in assay [34] was at least 133 µM; in assay [35] it was at least 133 µM; in assay [36] it was at least 133 µM; in assay [37], at least 133 µM; in assay [38] it was above 133 µM; in assay [39], at least 133 µM.
For the compound `NC(=O)CC[C@H](NC(=O)[C@H](CCCN=C(N)N)NC(=O)[C@H](CCCN=C(N)N)NC(=O)[C@@H](N)Cc1c[nH]c2ccccc12)C(=O)N[C@@H](CCCN=C(N)N)C(=O)N[C@@H](Cc1c[nH]c2ccccc12)C(N)=O` [WRRQRW], the MIC in assay [40] and in [41] was at least 130 µM each time.
